Molecular target: T1, human mAChR M4 (Homo sapiens, UniProt P08173)
T1 construct: expressed in transfected cells; host or cells: CHO-K1 (ATCC), stably co-expressing chimeric G protein Gqi5
T1 sequence (P08173 1-479): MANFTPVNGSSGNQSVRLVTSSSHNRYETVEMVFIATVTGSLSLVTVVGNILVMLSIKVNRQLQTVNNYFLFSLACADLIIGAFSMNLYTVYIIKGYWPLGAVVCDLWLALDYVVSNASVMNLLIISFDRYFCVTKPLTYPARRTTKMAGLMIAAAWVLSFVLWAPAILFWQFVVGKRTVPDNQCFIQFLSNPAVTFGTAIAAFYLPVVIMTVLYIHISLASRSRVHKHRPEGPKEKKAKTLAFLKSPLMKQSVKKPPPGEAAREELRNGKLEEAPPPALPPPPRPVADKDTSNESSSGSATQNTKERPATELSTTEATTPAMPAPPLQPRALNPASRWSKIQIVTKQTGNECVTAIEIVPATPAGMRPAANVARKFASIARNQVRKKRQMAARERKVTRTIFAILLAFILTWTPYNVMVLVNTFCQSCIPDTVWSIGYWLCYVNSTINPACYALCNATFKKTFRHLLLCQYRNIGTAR
Experiment: mAChR M4 cell-based functional assay (calcium mobilization, EC80 acetylcholine), human M4
Conditions: for Emin: human M4, % ACh maximum at 30 μM
Method in brief: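 CHO-K1 cells stably expressing human M4 with chimeric Gqi5; intracellular calcium rise read on FDSS as fluorescence static ratio at 1 Hz. Compounds in 10-point 1:3 dilution series; IC50 taken as concentration-dependent decrease of the EC80 acetylcholine response, four-parameter logistic fit.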

[1] = Table 9, M4/Gqi5/CHO-K1 cells, decrease of EC80 acetylcholine response
[2] = Table 10, M4/Gqi5/CHO-K1 cells, decrease of EC80 acetylcholine response

SMILES | IC50 [1] [µM] | Emin (Table 9) [%] | Human M4 Emin (Table 10) [%] | IC50 [2] [µM] | further results
Cc1nn(C)cc1-c1ccc(O[C@@H]2C[C@@H]3CN(CC4CCCCC4)C[C@@H]3C2)nn1 [Compound 49, (3aR,5r,6aS)-2-(cyclohexylmethyl)-5-[6-(1,3-dimethylpyrazol-4-yl)pyridazin-3-yl]oxy-3,3a,4,5,6,6a-hexahydro-1H-cyclopenta[c]pyrrole] | 0.272 | 3.17 |  |  | 
Fc1ccc(-c2ccc(N[C@H]3C[C@@H]4CN(CC5CCOCC5)C[C@@H]4C3)nn2)cc1 [Compound 187, (3aR,5s,6aS)-N-[6-(4-fluorophenyl)pyridazin-3-yl]-2-(tetrahydropyran-4-ylmethyl)-3,3a,4,5,6,6a-hexahydro-1H-cyclopenta[c]pyrrol-5-amine] |  |  | 4 | 0.0046 | 
Fc1ccc(Cl)c(-c2ccc(N[C@H]3C[C@@H]4CN(Cc5cccc6c5OCO6)C[C@@H]4C3)nn2)c1 [Compound 167, (3aR,5s,6aS)-2-(1,3-benzodioxol-4-ylmethyl)-N-[6-(2-chloro-5-fluoro-phenyl)pyridazin-3-yl]-3,3a,4,5,6,6a-hexahydro-1H-cyclopenta[c]pyrrol-5-amine] |  |  | 2 | 0.0391 | 
CC(C)(C)CCN1C[C@H]2C[C@H](Nc3ccc(N4CCOCC4)nn3)C[C@H]2C1 [Compound 143, (3aR,5s,6aS)-2-(3,3-dimethylbutyl)-N-(6-morpholinopyridazin-3-yl)-3,3a,4,5,6,6a-hexahydro-1H-cyclopenta[c]pyrrol-5-amine] |  |  | 6 | 5.02 | 
Cc1cnn(C)c1-c1ccc(NCCC2C[C@@H]3CN(CC45CC6CC(CC(C6)C4)C5)C[C@@H]3C2)nn1 (stereo partly drawn) [Compound 121, N-[2-[(3aR,6aS)-2-(1-adamantylmethyl)-3,3a,4,5,6,6a-hexahydro-1H-cyclopenta[c]pyrrol-5-yl]ethyl]-6-(2,4-dimethylpyrazol-3-yl)pyridazin-3-amine] | 0.047 | 3.59 |  |  | 
Fc1ccc(Cl)c(-c2ccc(OCC3C[C@@H]4CN(CC5CCCCC5)C[C@@H]4C3)nn2)c1 (stereo partly drawn) [Compound 111, (3aR,6aS)-5-[[6-(2-chloro-5-fluoro-phenyl)pyridazin-3-yl]oxymethyl]-2-(cyclohexylmethyl)-3,3a,4,5,6,6a-hexahydro-1H-cyclopenta[c]pyrrole] | 0.443 | 3.62 |  |  | 
Cc1cnn(C)c1-c1ccc(OC[C@@H]2C[C@@H]3CN(CCC(C)(C)C)C[C@@H]3C2)nn1 [Compound 147, (3aR,5r,6aS)-2-(3,3-dimethylbutyl)-5-[[6-(2,4-dimethylpyrazol-3-yl)pyridazin-3-yl]oxymethyl]-3,3a,4,5,6,6a-hexahydro-1H-cyclopenta[c]pyrrole] |  |  | 4 | 0.0424 | 
COc1ccc(-c2ccc(N[C@H]3C[C@@H]4CN(CC5CCOCC5)C[C@@H]4C3)nn2)cn1 [Compound 224, (3aR,5s,6aS)-N-[6-(6-methoxy-3-pyridyl)pyridazin-3-yl]-2-(tetrahydropyran-4-ylmethyl)-3,3a,4,5,6,6a-hexahydro-1H-cyclopenta[c]pyrrol-5-amine] |  |  | 4 | 0.00693 | 
Cc1cnn(C)c1-c1ccc(OCC2C[C@@H]3CN(Cc4ccc5c(c4)OCO5)C[C@@H]3C2)nn1 (stereo partly drawn) [Compound 91, (3aR,6aS)-2-(1,3-benzodioxol-5-ylmethyl)-5-[[6-(2,4-dimethylpyrazol-3-yl)pyridazin-3-yl]oxymethyl]-3,3a,4,5,6,6a-hexahydro-1H-cyclopenta[c]pyrrole] | 0.371 | 4.18 |  |  | 
CC1(C)CC(CN2C[C@H]3C[C@H](Nc4ccc(-c5cc(F)ccc5Cl)nn4)C[C@H]3C2)CCO1 (stereo partly drawn) [Compound 173, (3aR,5s,6aS)-N-[6-(2-chloro-5-fluoro-phenyl)pyridazin-3-yl]-2-[(2,2-dimethyltetrahydropyran-4-yl)methyl]-3,3a,4,5,6,6a-hexahydro-1H-cyclopenta[c]pyrrol-5-amine] |  |  | 3 | 0.00332 | 
COc1ccc(CN2C[C@H]3C[C@H](Nc4ccc(-c5cc(F)ccc5Cl)nn4)C[C@H]3C2)cc1 [Compound 168, (3aR,5s,6aS)-N-[6-(2-chloro-5-fluoro-phenyl)pyridazin-3-yl]-2-[(4-methoxyphenyl)methyl]-3,3a,4,5,6,6a-hexahydro-1H-cyclopenta[c]pyrrol-5-amine] |  |  | 2 | 0.0115 | 
Cc1cccnc1CN1C[C@H]2CC(COc3ccc(-c4c(C)cnn4C)nn3)C[C@H]2C1 (stereo partly drawn) [Compound 90, (3aR,6aS)-5-[[6-(2,4-dimethylpyrazol-3-yl)pyridazin-3-yl]oxymethyl]-2-[(3-methyl-2-pyridyl)methyl]-3,3a,4,5,6,6a-hexahydro-1H-cyclopenta[c]pyrrole] | 1.43 | 7.98 |  |  | 
Cc1nn(C)cc1-c1ccc(N[C@@H]2C[C@@H]3CN(CC45CC6CC(CC(C6)C4)C5)C[C@@H]3C2)c(F)c1F [Compound 45, (3aR,5r,6aS)-2-(1-adamantylmethyl)-N-[4-(1,3-dimethylpyrazol-4-yl)-2,3-difluoro-phenyl]-3,3a,4,5,6,6a-hexahydro-1H-cyclopenta[c]pyrrol-5-amine] | 6.59 | 12.0 |  |  | 
Cc1noc(C)c1-c1ccc(N[C@H]2C[C@@H]3CN(CCC(C)(C)C)C[C@@H]3C2)nn1 [Compound 142, (3aR,5s,6aS)-2-(3,3-dimethylbutyl)-N-[6-(3,5-dimethylisoxazol-4-yl)pyridazin-3-yl]-3,3a,4,5,6,6a-hexahydro-1H-cyclopenta[c]pyrrol-5-amine] |  |  | 6 | 0.00182 | 
Cc1cnn(C)c1-c1ccc(NCCC2C[C@@H]3CN(CC4CCCOC4)C[C@@H]3C2)nn1 (stereo partly drawn) [Compound 122, N-[2-[(3aR,6aS)-2-(tetrahydropyran-3-ylmethyl)-3,3a,4,5,6,6a-hexahydro-1H-cyclopenta[c]pyrrol-5-yl]ethyl]-6-(2,4-dimethylpyrazol-3-yl)pyridazin-3-amine] | 0.0273 | 4.29 |  |  | 
Clc1ccc(N[C@H]2C[C@@H]3CN(CC4CCOCC4)C[C@@H]3C2)nn1 [Compound 179, (3aR,5s,6aS)-N-(6-chloropyridazin-3-yl)-2-(tetrahydropyran-4-ylmethyl)-3,3a,4,5,6,6a-hexahydro-1H-cyclopenta[c]pyrrol-5-amine] |  |  | 29 |  | IC50 (Table 10, μM): > 10 µM

Second part, led by results:

IC50 [1] [µM] | Emin (Table 9) [%] | Human M4 Emin (Table 10) [%] | IC50 [2] [µM] | SMILES | further results
 | 26.4 |  |  | Cc1cccnc1CN1C[C@H]2C[C@@H](Oc3ccc(-c4cn(C)nc4C)nn3)C[C@H]2C1 [Compound 52, (3aR,5r,6aS)-5-[6-(1,3-dimethylpyrazol-4-yl)pyridazin-3-yl]oxy-2-[(3-methyl-2-pyridyl)methyl]-3,3a,4,5,6,6a-hexahydro-1H-cyclopenta[c]pyrrole] | IC50 (Table 9, μM): > 10 µM
1.04 | 4.09 |  |  | Cc1cnn(C)c1-c1ccc(NC(=O)C2CC3CN(CC(C)C(C)(C)C)CC3C2)nn1 (stereo not shown) [Compound 76, N-[6-(2,4-dimethylpyrazol-3-yl)pyridazin-3-yl]-2-(2,3,3-trimethylbutyl)-3,3a,4,5,6,6a-hexahydro-1H-cyclopenta[c]pyrrole-5-carboxamide] | 
0.0815 | 4.08 |  |  | Cc1cnn(C)c1-c1ccc(N[C@H]2C[C@@H]3CN(CC4CCCOC4)C[C@@H]3C2)nn1 (stereo partly drawn) [Compound 22, (3aR,5s,6aS)-N-[6-(2,4-dimethylpyrazol-3-yl)pyridazin-3-yl]-2-(tetrahydropyran-3-ylmethyl)-3,3a,4,5,6,6a-hexahydro-1H-cyclopenta[c]pyrrol-5-amine] | 
2.38 | 5.92 |  |  | Cc1nn(C)cc1-c1ccc(OCC2C[C@@H]3CN(Cc4ccccc4)C[C@@H]3C2)nn1 (stereo partly drawn) [Compound 100, (3aR,6aS)-2-benzyl-5-[[6-(1,3-dimethylpyrazol-4-yl)pyridazin-3-yl]oxymethyl]-3,3a,4,5,6,6a-hexahydro-1H-cyclopenta[c]pyrrole] | 
0.01 | 2.98 |  |  | Cc1nn(C)cc1-c1ccc(N[C@H]2C[C@@H]3CN(CC4CCOCC4)C[C@@H]3C2)nn1 [Compound 5, (3aR,5s,6aS)-N-[6-(1,3-dimethylpyrazol-4-yl)pyridazin-3-yl]-2-(tetrahydropyran-4-ylmethyl)-3,3a,4,5,6,6a-hexahydro-1H-cyclopenta[c]pyrrol-5-amine] | 
0.263 | 3.37 |  |  | Cc1cnn(C)c1-c1ccc(NC(=O)C2C[C@@H]3CN(CCC(C)(C)C)C[C@@H]3C2)nn1 (stereo partly drawn) [Compound 74, (3aR,6aS)-2-(3,3-Dimethylbutyl)-N-[6-(2,4-dimethylpyrazol-3-yl)pyridazin-3-yl]-3,3a,4,5,6,6a-hexahydro-1H-cyclopenta[c]pyrrole-5-carboxamide] | 
0.0008 | 6.3 |  |  | Cc1cnn(C)c1-c1ccc(N[C@H]2C[C@@H]3CN(CC4CC5C=CC4C5)C[C@@H]3C2)nn1 (stereo partly drawn) [Compound 17, (3aR,5s,6aS)-2-(5-bicyclo[2.2.1]hept-2-enylmethyl)-N-[6-(2,4-dimethylpyrazol-3-yl)pyridazin-3-yl]-3,3a,4,5,6,6a-hexahydro-1H-cyclopenta[c]pyrrol-5-amine] | 

— US12577234B2, “Antagonists of the muscarinic acetylcholine receptor M4” (Vanderbilt University, priority 2017, dated 2026)
